# Measured values as given in patent US12077503B2, “Substituted cyclic amides and their use as herbicides” (FMC CORPORATION, priority 2015, dated 2024).
# What was measured:
# Type in all cases: in vivo
# Kochia (Kochia scoparia) = experiment: Test E preemergence; settings: scale 0 to 100
# Description: (§1) Seeds of plant species selected from corn (Zea mays), soybean (Glycine max), velvetleaf (Abutilon theophrasti), lambsquarters (Chenopodium album), poinsettia, wild (wild poinsettia, Euphorbia heterophylla), pigweed, palmer (palmer pigweed, Amaranthus palmeri), waterhemp (common waterhemp, Amaranthus rudis), surinam grass (Brachiaria decumbens), crabgrass, large (large crabgrass, Digitaria sangumnalis), crabgrass, Brazil (Brazilian crabgrass, Digitaria horizontalis), Panicum, fall (fall Panicum, Panicum dichotomiflorum), foxtail, giant (giant foxtail, Setaria faberii), foxtail, green (green foxtail, Setaria viridis), goosegrass (Eleusine indica), johnsongrass (Sorghum halepense), ragweed (common ragweed, Ambrosia elatior), barnyardgrass (Echinochloa crus-galli), sandbur (southern sandbur, Cenchrus echinatus), arrowleaf Sida (Sida rhombifolia), ryegrass, Italian (Italian ryegrass, Lolium multiflorum), dayflower, VA (Virginia dayflower, Commelina virginica), field bindweed (Convolvulus arvensis), morningglory (Ipomoea coccinea), nightshade (eastern black nightshade, Solanum ptycanthum), Kochia (Kochia scoparia), nutsedge, yellow (yellow nutsedge, Cyperus esculentus), horseweed (Conyza canadensis), and beggarticks (hairy beggarticks, Bidens pilosa), were planted into a silt loam soil and treated preemergence with test chemicals formulated in a non-phytotoxic solvent mixture which included a surfactant.
# (§2) At the same time, plants selected from these crop and weed species were planted in pots containing Sunshine Redi-Earth planting medium comprising spaghnum peat moss, vermiculite, starter nutrients and dolomitic limestone and treated with postemergence applications of a test chemical formulated in the same manner. Plants ranged in height from 2 to 18 cm (1- to 4-leaf stage) for postemergence treatments. Treated plants and controls were maintained in a greenhouse for 14 to 21 d, after which time all species were compared to controls and visually evaluated. Plant response ratings, summarized in Table E, are based on a scale of 0 to 100 where 0 is no effect and 100 is complete control. A dash (-) response means no test result.
# [1] = tested on: Panicum, fall (fall Panicum, Panicum dichotomiflorum); experiment: Test E preemergence; settings: scale 0 to 100
# Description: as §1, §2
# [2] = tested on: barnyardgrass (Echinochloa crus-galli); experiment: Test E preemergence; settings: scale 0 to 100
# Description: as §1, §2
# [3] = tested on: beggarticks (hairy beggarticks, Bidens pilosa); experiment: Test E preemergence; settings: scale 0 to 100
# Description: as §1, §2
# corn (Zea mays) = experiment: Test E preemergence; settings: scale 0 to 100
# Description: as §1, §2
# [4] = tested on: crabgrass, large (large crabgrass, Digitaria sangumnalis); experiment: Test E preemergence; settings: scale 0 to 100
# Description: as §1, §2
# [5] = tested on: dayflower, VA (Virginia dayflower, Commelina virginica); experiment: Test E preemergence; settings: scale 0 to 100
# Description: as §1, §2
# [6] = tested on: foxtail, green (green foxtail, Setaria viridis); experiment: Test E preemergence; settings: scale 0 to 100
# Description: as §1, §2
# [7] = tested on: horseweed (Conyza canadensis); experiment: Test E preemergence; settings: scale 0 to 100
# Description: as §1, §2
# [8] = tested on: johnsongrass (Sorghum halepense); experiment: Test E preemergence; settings: scale 0 to 100
# Description: as §1, §2
# [9] = tested on: morningglory (Ipomoea coccinea); experiment: Test E preemergence; settings: scale 0 to 100
# Description: as §1, §2
# [10] = tested on: nutsedge, yellow (yellow nutsedge, Cyperus esculentus); experiment: Test E preemergence; settings: scale 0 to 100
# Description: as §1, §2
# [11] = tested on: pigweed, palmer (palmer pigweed, Amaranthus palmeri); experiment: Test E preemergence; settings: scale 0 to 100
# Description: as §1, §2
# [12] = tested on: poinsettia, wild (wild poinsettia, Euphorbia heterophylla); experiment: Test E preemergence; settings: scale 0 to 100
# Description: as §1, §2
# [13] = tested on: waterhemp (common waterhemp, Amaranthus rudis); experiment: Test E preemergence; settings: scale 0 to 100
# Description: as §1, §2
# [14] = tested on: redstem (purple redstem, Ammannia coccinea); experiment: Test F flooded paddy test; settings: Flood
compound,measurement,setting,value
CN1CC(c2cccc(OC(F)(F)C(F)F)c2)C(C(=O)Nc2cccc(F)c2F)C1=O (centres unmarked) [Compound 392],Plant response rating: Kochia,Kochia (Kochia scoparia); 31 g ai/ha,85
same,Plant response rating: Kochia,Kochia (Kochia scoparia); 62 g ai/ha,90
same,Plant response rating: Kochia,Kochia (Kochia scoparia); 125 g ai/ha,80
same,Plant response rating: Kochia,Kochia (Kochia scoparia); 250 g ai/ha,90
same,"Plant response rating: Panicum, Fall",[1]; 31 g ai/ha,95
same,"Plant response rating: Panicum, Fall",[1]; 62 g ai/ha,98
same,"Plant response rating: Panicum, Fall",[1]; 125 g ai/ha,98
same,"Plant response rating: Panicum, Fall",[1]; 250 g ai/ha,98
same,Plant response rating: Barnyardgrass,[2]; 31 g ai/ha,85
same,Plant response rating: Barnyardgrass,[2]; 62 g ai/ha,70
same,Plant response rating: Barnyardgrass,[2]; 125 g ai/ha,90
same,Plant response rating: Barnyardgrass,[2]; 250 g ai/ha,95
same,Plant response rating: Beggarticks,[3]; 31 g ai/ha,0
same,Plant response rating: Beggarticks,[3]; 62 g ai/ha,0
same,Plant response rating: Beggarticks,[3]; 125 g ai/ha,0
same,Plant response rating: Beggarticks,[3]; 250 g ai/ha,0
same,Plant response rating: Corn,corn (Zea mays); 31 g ai/ha,0
same,Plant response rating: Corn,corn (Zea mays); 62 g ai/ha,15
same,Plant response rating: Corn,corn (Zea mays); 125 g ai/ha,50
same,Plant response rating: Corn,corn (Zea mays); 250 g ai/ha,70
same,"Plant response rating: Crabgrass, Large",[4]; 31 g ai/ha,90
same,"Plant response rating: Crabgrass, Large",[4]; 62 g ai/ha,95
same,"Plant response rating: Crabgrass, Large",[4]; 125 g ai/ha,98
same,"Plant response rating: Crabgrass, Large",[4]; 250 g ai/ha,98
same,"Plant response rating: Dayflower, VA",[5]; 31 g ai/ha,0
same,"Plant response rating: Dayflower, VA",[5]; 62 g ai/ha,0
same,"Plant response rating: Dayflower, VA",[5]; 125 g ai/ha,0
same,"Plant response rating: Dayflower, VA",[5]; 250 g ai/ha,35
same,"Plant response rating: Foxtail, Green",[6]; 31 g ai/ha,65
same,"Plant response rating: Foxtail, Green",[6]; 62 g ai/ha,90
same,"Plant response rating: Foxtail, Green",[6]; 125 g ai/ha,95
same,"Plant response rating: Foxtail, Green",[6]; 250 g ai/ha,98
same,Plant response rating: Horseweed,[7]; 31 g ai/ha,0
same,Plant response rating: Horseweed,[7]; 62 g ai/ha,0
same,Plant response rating: Horseweed,[7]; 125 g ai/ha,98
same,Plant response rating: Horseweed,[7]; 250 g ai/ha,100
same,Plant response rating: Johnsongrass,[8]; 31 g ai/ha,25
same,Plant response rating: Johnsongrass,[8]; 62 g ai/ha,30
same,Plant response rating: Johnsongrass,[8]; 125 g ai/ha,50
same,Plant response rating: Johnsongrass,[8]; 250 g ai/ha,95
same,Plant response rating: Morningglory,[9]; 31 g ai/ha,0
same,Plant response rating: Morningglory,[9]; 62 g ai/ha,0
same,Plant response rating: Morningglory,[9]; 125 g ai/ha,0
same,Plant response rating: Morningglory,[9]; 250 g ai/ha,0
same,"Plant response rating: Nutsedge, Yellow",[10]; 31 g ai/ha,0
same,"Plant response rating: Nutsedge, Yellow",[10]; 62 g ai/ha,0
same,"Plant response rating: Nutsedge, Yellow",[10]; 125 g ai/ha,0
same,"Plant response rating: Nutsedge, Yellow",[10]; 250 g ai/ha,0
same,"Plant response rating: Pigweed, Palmer",[11]; 31 g ai/ha,0
same,"Plant response rating: Pigweed, Palmer",[11]; 62 g ai/ha,20
same,"Plant response rating: Pigweed, Palmer",[11]; 125 g ai/ha,35
same,"Plant response rating: Pigweed, Palmer",[11]; 250 g ai/ha,90
same,"Plant response rating: Poinsettia, Wild",[12]; 31 g ai/ha,0
same,"Plant response rating: Poinsettia, Wild",[12]; 62 g ai/ha,0
same,"Plant response rating: Poinsettia, Wild",[12]; 125 g ai/ha,35
same,"Plant response rating: Poinsettia, Wild",[12]; 250 g ai/ha,20
same,Plant response rating: Waterhemp,[13]; 31 g ai/ha,35
same,Plant response rating: Waterhemp,[13]; 62 g ai/ha,80
same,Plant response rating: Waterhemp,[13]; 125 g ai/ha,70
same,Plant response rating: Waterhemp,[13]; 250 g ai/ha,90
Cc1ccc(C2CN(C)C(=O)C2C(=O)Nc2ccccc2F)cc1F (centres unmarked) [Compound 465],Plant response rating: Redstem,[14]; 32 g ai/ha,0
same,Plant response rating: Redstem,[14]; 64 g ai/ha,0
same,Plant response rating: Redstem,[14]; 125 g ai/ha,0
same,Plant response rating: Redstem,[14]; 250 g ai/ha,45
CN1CC(c2cccc(OC(F)F)c2)C(C(=O)Nc2ccc(F)cc2F)C1=O (centres unmarked) [Compound 617],Plant response rating: Redstem,[14]; 32 g ai/ha,0
same,Plant response rating: Redstem,[14]; 64 g ai/ha,0
same,Plant response rating: Redstem,[14]; 125 g ai/ha,0
same,Plant response rating: Redstem,[14]; 250 g ai/ha,0
